This passage reports AC50 results from US9108921B2, “Therapeutic compounds and compositions” (AGIOS PHARMACEUTICALS, INC, priority 2014, dated 2015).

One may read the AC50 as the concentration at which the activity in the assay is half-maximal.

Experiment [1] addresses T1, PKR WT (Homo sapiens, UniProt P30613). As to the kind of experiment: PKR WT cell based AC50 assay. Particulars: wild type PKR.
Experiment [2] has as its target T1, PKR WT. As to the kind of experiment: PKR WT enzymatic AC50 assay. The class given is biochemical. The conditions noted are these: wild type PKR. Summed up:
(§1)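 PK-LDH coupled assay, RT. Enzyme + cpd + PEP/NADH/LDH, 60 min pre-incubation, no ADP. ADP 0.22-1.65 mM to initiate; A340 kinetic read. Cpd 11 pts, 3-fold, 100 μM top.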

The next experiment concerns the target PKR R532W (Homo sapiens, UniProt P30613, R532W). In words: PKR Mutant Assay, AC50 against PKR R532W. Particulars: mutant PKR R532W enzyme. The class given is biochemical. Summed up:
as §1

The next experiment addresses PKR R510Q (Homo sapiens, UniProt P30613, R510Q). In words: PKR Mutant Assay, AC50 against PKR R510Q. The class given is biochemical. Particulars: mutant PKR R510Q enzyme. Summed up:
as §1

PKR R510Q, sequence (P30613 whole entry R510Q): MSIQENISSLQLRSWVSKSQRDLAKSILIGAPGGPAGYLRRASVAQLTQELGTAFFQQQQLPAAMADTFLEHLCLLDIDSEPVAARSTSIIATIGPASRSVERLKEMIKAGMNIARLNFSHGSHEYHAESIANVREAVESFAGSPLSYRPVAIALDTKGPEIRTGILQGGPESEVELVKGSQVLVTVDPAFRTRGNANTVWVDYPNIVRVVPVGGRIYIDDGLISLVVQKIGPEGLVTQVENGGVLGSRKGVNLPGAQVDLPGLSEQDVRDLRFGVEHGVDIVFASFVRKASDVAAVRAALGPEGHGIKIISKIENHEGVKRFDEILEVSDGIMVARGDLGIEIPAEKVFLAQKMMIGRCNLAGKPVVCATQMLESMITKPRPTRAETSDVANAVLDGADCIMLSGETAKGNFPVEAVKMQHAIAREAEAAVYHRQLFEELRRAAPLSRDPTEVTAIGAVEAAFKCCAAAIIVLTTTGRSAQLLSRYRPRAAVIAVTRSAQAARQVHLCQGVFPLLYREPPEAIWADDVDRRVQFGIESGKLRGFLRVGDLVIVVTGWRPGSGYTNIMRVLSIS
T1 sequence (P30613 whole entry): as the sequence (P30613 whole entry R510Q) above, with Q510R counted along it
PKR R532W, sequence (P30613 whole entry R532W): as the sequence (P30613 whole entry R510Q) above, with Q510R, R532W counted along it

As for `CC(C)(C)CC1(O)CCN(C(=O)c2ccc(NS(=O)(=O)c3ccc(F)c4cccnc34)cc2)CC1` [Compound 187, 5-fluoro-N-(4-(4-hydroxy-4-neopentylpiperidine-1-carbonyl)phenyl)quinoline-8-sulfonamide], the AC50 on PKR WT [1], at PKR WT [2], on PKR R532W and on PKR R510Q was below 100 nM throughout.

On to `O=C(c1ccc(NS(=O)(=O)c2cccc3cccnc23)cc1)N1CCC(O)(Cc2ccccn2)CC1` [Compound 189, N-(4-(4-hydroxy-4-(pyridin-2-ylmethyl)piperidine-1-carbonyl)phenyl)quinoline-8-sulfonamide], for which the half-maximal activity concentration (AC50) at PKR WT [1] was 101 to 1000 nM; at PKR WT [2] it was below 100 nM; on PKR R532W, below 100 nM; on PKR R510Q it was 101 to 1000 nM.

`Cc1ccc(C2(O)CCN(C(=O)c3ccc(NS(=O)(=O)c4cccc5cccnc45)cc3)CC2)c(Cl)c1` [Compound 190, N-[4-[4-(2-chloro-4-methyl-phenyl)-4-hydroxy-piperidine-1-carbonyl]phenyl]quinoline-8-sulfonamide]: the AC50 at PKR WT [1] is 101 to 1000 nM; on PKR WT [2] it was below 100 nM; on PKR R532W, below 100 nM; on PKR R510Q it was 101 to 1000 nM.

`O=C(c1ccc(NS(=O)(=O)c2cccc3cccnc23)cc1)N1CCC(O)(c2ncccc2Cl)CC1` [Compound 191, N-(4-(4-(3-chloropyridin-2-yl)-4-hydroxypiperidine-1-carbonyl)phenyl)quinoline-8-sulfonamide]: the AC50 was below 100 nM on PKR WT [1], below 100 nM on PKR WT [2], below 100 nM on PKR R532W and 101 to 1000 nM on PKR R510Q.

Turning to `CS(=O)(=O)c1ccccc1C1(O)CCN(C(=O)c2ccc(NS(=O)(=O)c3cccc4cccnc34)cc2)CC1` [Compound 192, N-[4-[4-hydroxy-4-(2-methylsulfonylphenyl)piperidine-1-carbonyl]phenyl]quinoline-8-sulfonamide], the AC50 is below 100 nM on PKR WT [1], below 100 nM on PKR WT [2], below 100 nM at PKR R532W and 1010 to 10000 nM on PKR R510Q.

For the compound `O=C(c1ccc(NS(=O)(=O)c2cccc3cccnc23)cc1F)N1CCC(O)(c2ccccc2Cl)CC1` [Compound 193, N-(4-(4-(2-chlorophenyl)-4-hydroxypiperidine-1-carbonyl)-3-fluorophenyl)quinoline-8-sulfonamide], the AC50 on PKR WT [1] is below 100 nM; on PKR WT [2], below 100 nM; at PKR R532W, below 100 nM; at PKR R510Q, 101 to 1000 nM.

Consider `O=C(c1ccc(NS(=O)(=O)c2cccc3cccnc23)cc1)N1CCC(O)(c2ccc(F)cc2)CC1` [Compound 194, N-(4-(4-(4-fluorophenyl)-4-hydroxypiperidine-1-carbonyl)phenyl)quinoline-8-sulfonamide], for which the AC50 at PKR WT [1] was below 100 nM; on PKR WT [2], below 100 nM; at PKR R532W, below 100 nM; at PKR R510Q, 101 to 1000 nM.

Regarding `CC(C)(C)C1(O)CCN(C(=O)c2ccc(NS(=O)(=O)c3cccc4cccnc34)cc2)CC1` [Compound 195, N-(4-(4-(tert-butyl)-4-hydroxypiperidine-1-carbonyl)phenyl)quinoline-8-sulfonamide], the AC50 is below 100 nM on PKR WT [1], below 100 nM at PKR WT [2], below 100 nM on PKR R532W and 101 to 1000 nM on PKR R510Q.

With `O=C(c1ccc(NS(=O)(=O)c2cc(F)cc3cccnc23)cc1)N1CCC(O)(c2ccccc2)CC1` [Compound 196, 6-fluoro-N-(4-(4-hydroxy-4-phenylpiperidine-1-carbonyl)phenyl)quinoline-8-sulfonamide], the AC50 is 101 to 1000 nM on PKR WT [1], below 100 nM at PKR WT [2], below 100 nM on PKR R532W and 101 to 1000 nM on PKR R510Q.

With `O=C(c1ccc(NS(=O)(=O)c2cccc3ccccc23)cc1)N1CCC(O)(c2ccccc2Cl)CC1` [Compound 197, N-(4-(4-(2-chlorophenyl)-4-hydroxypiperidine-1-carbonyl)phenyl)naphthalene-1-sulfonamide], the AC50 at PKR WT [1] was 101 to 1000 nM; on PKR WT [2], below 100 nM; on PKR R532W, below 100 nM; at PKR R510Q, 101 to 1000 nM.

In the case of `O=C(c1ccc(NS(=O)(=O)c2cccc3cccnc23)cc1)N1CCC(O)(c2cccc(C(F)(F)F)c2)CC1` [Compound 199, N-(4-(4-hydroxy-4-(3-(trifluoromethyl)phenyl)piperidine-1-carbonyl)phenyl)quinoline-8-sulfonamide], the AC50 at PKR WT [1] is below 100 nM; at PKR WT [2], below 100 nM; at PKR R532W, below 100 nM; at PKR R510Q, 101 to 1000 nM.

Turning to `CC(C)CC1(O)CCN(C(=O)c2ccc(NS(=O)(=O)c3ccc(F)c4cccnc34)cc2)CC1` [Compound 203, 5-fluoro-N-(4-(4-hydroxy-4-isobutylpiperidine-1-carbonyl)phenyl)quinoline-8-sulfonamide], the AC50 at PKR WT [1] is below 100 nM; on PKR WT [2], below 100 nM; on PKR R532W, below 100 nM; at PKR R510Q, 101 to 1000 nM.

For `O=C(c1ccc(NS(=O)(=O)c2cccc3cccnc23)cc1)N1CCC(O)(CCC(F)F)CC1` [Compound 204, N-(4-(4-(3,3-difluoropropyl)-4-hydroxypiperidine-1-carbonyl)phenyl)quinoline-8-sulfonamide], the AC50 on PKR WT [1] is below 100 nM; on PKR WT [2] it was below 100 nM; at PKR R532W, below 100 nM; on PKR R510Q it was 101 to 1000 nM.

Consider `O=C(c1ccc(NS(=O)(=O)c2cccc3cccnc23)cc1)N1CCC(O)(c2ccncc2)CC1` [Compound 206, N-(4-(4-hydroxy-4-(pyridin-4-yl)piperidine-1-carbonyl)phenyl)quinoline-8-sulfonamide], for which the AC50 at PKR WT [1] was below 100 nM; on PKR WT [2], below 100 nM; at PKR R532W it was below 100 nM; at PKR R510Q it was 1010 to 10000 nM.

Consider `Cc1cccc(CC2(O)CCN(C(=O)c3ccc(NS(=O)(=O)c4cccc5cccnc45)cc3)CC2)n1` [Compound 207, N-(4-(4-hydroxy-4-((6-methylpyridin-2-yl)methyl)piperidine-1-carbonyl)phenyl)quinoline-8-sulfonamide], for which the AC50 is 101 to 1000 nM at PKR WT [1], below 100 nM at PKR WT [2], below 100 nM on PKR R532W and 101 to 1000 nM at PKR R510Q.

As to `N#Cc1cc(NS(=O)(=O)c2cccc3cccnc23)ccc1C(=O)N1CCC(O)(c2ccccc2Cl)CC1` [Compound 209], the AC50 at PKR WT [1] was below 100 nM; at PKR WT [2], below 100 nM; at PKR R532W, below 100 nM; on PKR R510Q it was 101 to 1000 nM.

With `Cc1nc(C(=O)N2CCC(O)(c3ccccc3Cl)CC2)ccc1NS(=O)(=O)c1cccc2cccnc12` [Compound 210, N-(6-(4-(2-chlorophenyl)-4-hydroxypiperidine-1-carbonyl)-2-methylpyridin-3-yl)quinoline-8-sulfonamide], the AC50 is 101 to 1000 nM on PKR WT [1], below 100 nM on PKR WT [2], below 100 nM at PKR R532W and 101 to 1000 nM on PKR R510Q.

Take `COc1ncccc1C1(O)CCN(C(=O)c2ccc(NS(=O)(=O)c3cccc4cccnc34)cc2)CC1` [Compound 211, N-(4-(4-hydroxy-4-(2-methoxypyridin-3-yl)piperidine-1-carbonyl)phenyl)quinoline-8-sulfonamide]: the concentration at half-maximal activity (AC50) is 101 to 1000 nM on PKR WT [1], below 100 nM at PKR WT [2], below 100 nM on PKR R532W and 101 to 1000 nM at PKR R510Q.

On to `O=C(c1ccc(NS(=O)(=O)c2cccc3scnc23)cc1)N1CCC(O)(CC2CCC2)CC1` [Compound 212, N-(4-(4-(cyclobutylmethyl)-4-hydroxypiperidine-1-carbonyl)phenyl)benzo[d]thiazole-4-sulfonamide], for which the AC50 at PKR WT [1] was below 100 nM; at PKR WT [2], below 100 nM; on PKR R532W, below 100 nM; at PKR R510Q, 101 to 1000 nM.

In the case of `CC(C)CC1(O)CCN(C(=O)c2ccc(NS(=O)(=O)c3cccc4nccnc34)cc2OC(F)F)CC1` [Compound 213, N-(3-(difluoromethoxy)-4-(4-hydroxy-4-isobutylpiperidine-1-carbonyl)phenyl)quinoxaline-5-sulfonamide], the AC50 was below 100 nM on PKR WT [1], below 100 nM on PKR WT [2], below 100 nM at PKR R532W and 101 to 1000 nM on PKR R510Q.

As for `CC(C)C1(O)CCN(C(=O)c2ccc(NS(=O)(=O)c3cccc4cccnc34)cc2)CC1` [Compound 214, N-(4-(4-hydroxy-4-isopropylpiperidine-1-carbonyl)phenyl)quinoline-8-sulfonamide], the AC50 on PKR WT [1] is below 100 nM; at PKR WT [2], below 100 nM; on PKR R532W, below 100 nM; at PKR R510Q it was 101 to 1000 nM.

Regarding `O=C(c1ccc(NS(=O)(=O)c2cccc3scnc23)cc1)N1CCC(O)(c2ccccc2C(F)F)CC1` [Compound 215, N-(4-(4-(2-(difluoromethyl)phenyl)-4-hydroxypiperidine-1-carbonyl)phenyl)benzo[d]thiazole-4-sulfonamide], the AC50 on PKR WT [1] was 101 to 1000 nM; on PKR WT [2], below 100 nM; at PKR R532W, below 100 nM; at PKR R510Q it was 101 to 1000 nM.

On to `O=C(c1ccc(NS(=O)(=O)c2cccc3cccnc23)cc1)N1CCC(O)(c2cccnc2F)CC1` [Compound 217, N-(4-(4-(2-fluoropyridin-3-yl)-4-hydroxypiperidine-1-carbonyl)phenyl)quinoline-8-sulfonamide], for which the AC50 is 101 to 1000 nM on PKR WT [1], below 100 nM on PKR WT [2], 101 to 1000 nM at PKR R532W and 101 to 1000 nM at PKR R510Q.
